Measurements taken from patent US11419806B2, “Prebiotic oral care methods using a saccharide” (Colgate-Palmolive Company, priority 2013, dated 2022).

Columns and labels:
Format in all cases: cell-based
[1] = tested on: beneficial oral bacteria and pathogenic oral bacteria; experiment: Microarray screen, overall prebiotic assessment
Experimental: Substrates that were able to increase the metabolic activity of at least one of the above beneficial bacteria while not or only minimally increasing the growth of the pathogenic bacteria are considered to be prebiotic substrates.
The extent of metabolic activity of the tested bacteria in the presence of the above-mentioned saccharides after 24 hours and 48 hours was investigated through a high throughput phenotype microarray system (PM) for microbial cells (Biolog Inc.). Each PM can contain up to 95 different biochemical compounds (e.g. saccharides) that may act as substrates for bacteria as well as one negative control, not containing the substrates. Microarray plates were used in which the different wells of each plate were pre-loaded (by the manufacturer, Biolog Inc.) with different saccharides to be tested. Each bacterial species was tested using a separate microarray plate. Thus, a single bacterial species was tested with a variety of saccharides on each particular plate. The microarrays are based on redox technology, using cell respiration as a universal reporter. Active cell respiration results in the reduction of a tetrazolium dye and in the formation of a strong color—for example, when using the tetrazolium dye “Biolog Redox Dye Mix D”, the color changes from transparent/colorless to purple when the dye is reduced. The observation of this color change indicates which of the substrates improve the metabolic activity and health of the cells.
Each bacterial species was collected from blood agar plates (incubated for 48 hours anaerobically at 37° C.) and transferred to an IF-0 Base inoculation fluid (Biolog Inc.), which is a nutritionally poor medium. The resulting cell suspension was adjusted to a transmittance of 42% (relative to the transmittance of the base inoculation fluid with no bacterial species present) at 492 nm using a BioRad SmartSpec 3000 Photometer (the adjustment being effected by adding either further inoculation fluid or further bacteria until the transmittance of 42% was achieved). A 1:5 dilution of this suspension was prepared by mixing 3 mL of the 42% transmittance cell suspension with 15 mL of an inoculation fluid (which inoculation fluid was formed by mixing 11.6 mL sterile water, 62.5 mL IF-0 base inoculation fluid and 0.9 mL of the tetrazolium dye “Biolog Redox Dye mix D”), resulting in a final cell density which was equal to 85% transmittance using a BioRad SmartSpec 3000 Photometer. For each of the saccharides tested, the microarray plate (obtained from the supplier (Biolog Inc.) with saccharides already present in the relevant wells in powder form) was directly inoculated with 100 μL/well of this 85% transmittance cell suspension.
All plates were incubated in an anaerobic atmosphere at 37° C. Color changes were measured spectrophotometrically at 492 nm (Thermo Scientific Multiskan Ascent) at 24 hrs and 48 hrs using the same plate at both time points. […] After 24 hrs and 48 hrs under continuous shaking in a Multiscan microplate reader, the optical density (OD) of the synthetic medium at 24 hours and 48 hours was measured (using the microplate reader) at a wavelength of 492 nm for each combination of bacterium/saccharide, and for each of their respective controls (i.e. which contained the particular bacterium but no saccharide).
The experiment was carried out three times for each combination of bacterium with saccharide, with each repeat being carried out on a different day (thus providing three biological replicas). The controls were also carried out three times, as above. The values shown are the average (mean) of the three single values obtained (as detailed above) for each combination of bacterium with saccharide, at 24 hrs and at 48 hrs.
This value was selected in order to exclude low-stimulating metabolites and avoid false positive results.

[2] = tested on: beneficial oral bacteria and pathogenic oral bacteria; experiment: Twenty-four hour biofilm growth, overall prebiotic assessment
From the text: Substrates that were able to increase the biofilm mass of at least one of the above beneficial bacteria while not or only minimally increasing the biofilm mass of the pathogenic bacteria are considered to be prebiotic compounds.
(§1) The increase in biofilm formation of the tested bacteria in response to selected saccharides (D-turanose, D-lactitol, myo-inositol, and N-acetyl-D-mannosamine) was investigated by setting up biofilm growth assays in a nutritionally rich medium (brain heart infusion broth (BHI), Oxoid), over 24 hours. Late exponential growth phase liquid cultures were prepared by transferring the respective bacterium from blood agar plates to BHI and overnight incubation at 37° C. in an anaerobic atmosphere for A. viscosus, V. parvula, P. gingivalis, P. intermedia, T. forsythia, A. naeslundii, and C. sputigena, and in a 5% CO2 environment for S. salivarius, S. sanguinis, S. mitis, A. actinomycetemcomitans, S. mutans, and S. gordonii. Overnight cultures were transferred to BHI and adjusted to a concentration of 1×10^7 CFU/ml by measuring the optical density at 600 nm (OD600) (BioRad SmartSpec 3000). For each strain, 200 μl of the bacterial suspension was added to a 96-well plate containing 20 μl of the respective saccharides. Final concentrations of the saccharides were set to 5, 10, 20 and 25 μmol/ml. […] Additionally, for each bacterium tested, a background control, to correct for background staining, was added. This background control contained the bacterium tested and 0.03 weight % chlorhexidine, as an antiseptic. Plates were incubated as previously described. After 24 hrs the supernatant was removed from the wells of the plates. The wells were washed twice with 1×100 μL PBS (phosphate buffered saline), fixed for 20 minutes with 96% vol. ethanol (96% vol. solution in water) and the biofilm retained at the bottom of the wells was stained with 1 weight % crystal violet (1 weight % solution in water). The bound dye was dissolved with 5% vol. acetic acid (5% vol. solution in water). Quantification of the stained biofilm was performed by measuring the absorbance at 630 nm using a Multiskan Ascent microplate reader (Thermo Scientific).
The experiment was carried out on three different days (thus providing 3 biological replicas) and each day the experiment was carried out in quadruple (thus providing 4 technical replicas) for each combination of bacterium with saccharide and for each control. For each day and for each combination, the average (mean) of the values obtained (as detailed above) for the four technical replicas was calculated to provide a single value for each combination on each day. The values shown in Tables 7a, 7b, 8a, 8b, below, are the average (mean) of the three single values obtained for each combination of bacterium with saccharide. […]

[3] = tested on: V. parvula; experiment: Twenty-four hour biofilm growth (crystal violet)
Experimental: as §1
(§2) The experiment was carried out on three different days (thus providing 3 biological replicas) and each day the experiment was carried out in quadruple (thus providing 4 technical replicas) for each combination of bacterium with saccharide and for each control. For each day and for each combination, the average (mean) of the values obtained (as detailed above) for the four technical replicas was calculated to provide a single value for each combination on each day. The values shown in Tables 7a, 7b, 8a, 8b, below, are the average (mean) of the three single values obtained for each combination of bacterium with saccharide.

[4] = tested on: A. naeslundii; experiment: Twenty-four hour biofilm growth (crystal violet)
Experimental: as §1, §2

[5] = tested on: C. sputigena; experiment: Twenty-four hour biofilm growth (crystal violet)
Experimental: as §1, §2

[6] = tested on: S. mitis; experiment: Twenty-four hour biofilm growth (crystal violet)
Experimental: as §1, §2

[7] = tested on: S. salivarius; experiment: Twenty-four hour biofilm growth (crystal violet)
Experimental: as §1, §2

[8] = concentrations of 5, 10, 20 and 25 μmol/ml

| SMILES | prebiotic effects (metabolic activity, threshold value 2) ([1]; 24 hrs) | biofilm growth: OD 630 nm at 24 hrs divided by OD of control (control = 1) ([3]; 5 μmol/ml) | biofilm growth: OD 630 nm at 24 hrs divided by OD of control (control = 1) ([3]; 10 μmol/ml) | biofilm growth: OD 630 nm at 24 hrs divided by OD of control (control = 1) ([3]; 20 μmol/ml) | biofilm growth: OD 630 nm at 24 hrs divided by OD of control (control = 1) ([3]; 25 μmol/ml) | biofilm growth: OD 630 nm at 24 hrs divided by OD of control (control = 1) ([4]; 5 μmol/ml) | biofilm growth: OD 630 nm at 24 hrs divided by OD of control (control = 1) ([4]; 10 μmol/ml) | biofilm growth: OD 630 nm at 24 hrs divided by OD of control (control = 1) ([4]; 20 μmol/ml) | biofilm growth: OD 630 nm at 24 hrs divided by OD of control (control = 1) ([4]; 25 μmol/ml) | biofilm growth: OD 630 nm at 24 hrs divided by OD of control (control = 1) ([5]; 5 μmol/ml) | biofilm growth: OD 630 nm at 24 hrs divided by OD of control (control = 1) ([5]; 10 μmol/ml) | biofilm growth: OD 630 nm at 24 hrs divided by OD of control (control = 1) ([5]; 20 μmol/ml) | biofilm growth: OD 630 nm at 24 hrs divided by OD of control (control = 1) ([5]; 25 μmol/ml) | biofilm growth: OD 630 nm at 24 hrs divided by OD of control (control = 1) ([6]; 5 μmol/ml) | biofilm growth: OD 630 nm at 24 hrs divided by OD of control (control = 1) ([6]; 10 μmol/ml) | biofilm growth: OD 630 nm at 24 hrs divided by OD of control (control = 1) ([6]; 20 μmol/ml) | biofilm growth: OD 630 nm at 24 hrs divided by OD of control (control = 1) ([6]; 25 μmol/ml) | biofilm growth: OD 630 nm at 24 hrs divided by OD of control (control = 1) ([7]; 5 μmol/ml) | biofilm growth: OD 630 nm at 24 hrs divided by OD of control (control = 1) ([7]; 10 μmol/ml) | biofilm growth: OD 630 nm at 24 hrs divided by OD of control (control = 1) ([7]; 20 μmol/ml) | also measured |
| --- | --- | --- | --- | --- | --- | --- | --- | --- | --- | --- | --- | --- | --- | --- | --- | --- | --- | --- | --- | --- | --- |
| OC[C@@H](O)[C@@H](O[C@H]1O[C@H](CO)[C@H](O)[C@H](O)[C@H]1O)[C@H](O)[C@@H](O)CO [D-Lactitol, 4-O-α-D-galactopyranosyl-D-glucitol] | exhibited prebiotic effects | 1.0022 | 1.0212 | 0.9658 | 0.9859 | 1.0191 | 1.0015 | 1.0337 | 1.0428 | 0.5867 | 0.5658 | 0.6841 | 0.7591 | 0.6696 | 0.5919 | 0.8007 | 0.8340 | 2.1471 | 4.8849 | 5.5726 | prebiotic effects (biofilm growth, threshold value 1.6) [2, 8]: exhibited prebiotic effects; biofilm growth: OD 630 nm at 24 hrs divided by OD of control (control = 1) ([7]; 25 μmol/ml): 6.4158 |
| OC[C@H]1O[C@@](O)(CO)[C@@H](O[C@H]2O[C@H](CO)[C@@H](O)[C@H](O)[C@H]2O)[C@@H]1O [D-Turanose, α-D-glucopyranosyl-(1→3)-α-D-fructofuranose] | exhibited prebiotic effects | 1.2298 | 1.3941 | 1.4942 | 1.3055 | 1.5849 | 1.4372 | 1.4348 | 1.4411 | 0.9429 | 0.9387 | 0.9130 | 0.9464 | 1.9433 | 1.5717 | 0.5236 | 0.3988 | 0.9812 | 0.9793 | 0.8441 | speed of metabolism by beneficial versus pathogenic bacteria (value of 2 reached at 24 hrs) ([1]; 24 hrs): metabolized faster by the beneficial bacteria than by the pathogenic bacteria; prebiotic effects (biofilm growth, threshold value 1.6) ([2]; concentrations of 20 and 25 μmol/ml): exhibited prebiotic effects; biofilm growth: OD 630 nm at 24 hrs divided by OD of control (control = 1) ([7]; 25 μmol/ml): 0.8731 |
| O[C@H]1[C@H](O)[C@@H](O)[C@H](O)[C@@H](O)[C@H]1O [Myo-Inositol, (1R,2R,3S,4S,5R,6S)-cyclohexane-1,2,3,4,5,6-hexol] | exhibited prebiotic effects | 1.0021 | 1.1121 | 1.0036 | 1.0399 | 1.0309 | 1.0353 | 1.0270 | 1.0456 | 0.9276 | 0.9522 | 0.9758 | 0.8233 | 1.2433 | 1.0616 | 1.1754 | 1.1357 | 0.8358 | 0.9694 | 0.8119 | prebiotic effects (metabolic activity, threshold value 2) ([1]; 48 hrs): exhibited prebiotic effects; prebiotic effects (biofilm growth, threshold value 1.6) [2, 8]: exhibited prebiotic effects; biofilm growth: OD 630 nm at 24 hrs divided by OD of control (control = 1) ([7]; 25 μmol/ml): 0.8202 |
